In patent US20070249827A1, “Meropenem Intermediatein in Crystalling Form” (SANDOZ AG, priority 2004, published 2007):

Experiment: Stability comparison between crystalline form and amorphous form (storage 72 h at 70° C.)
Assay type: physicochemical
Conditions: for content, starting value / sum of all by-products, starting value: before storage

Row | SMILES | content after 72 h at 70° C. [% by weight] | sum of all by-products after 72 h at 70° C. | content, starting value [% by weight] | sum of all by-products, starting value [%]
1 | C[C@@H](O)[C@H]1C(=O)N2C(C(=O)OCc3ccc([N+](=O)[O-])cc3)=C(S[C@H]3C[C@@H](C(=O)N(C)C)N(C(=O)OCc4ccc([N+](=O)[O-])cc4)C3)[C@H](C)[C@H]12 [Compound of formula I in amorphous form, (4R,5S,6S)-(p-nitrobenzyl) 3-[[(3S,5S)-1(-p-nitrobenzyloxycarbonyl)-5-(dimethylaminocarbonyl)-3-pyrrolidinyl]thio]-6-[(1R)-1-hydroxyethyl]-4-methyl-7-oxo-1-azabicyclo[3.2.0]hept-2-ene-2-carboxylate] | 90.8 | sum of all by-products 5.7% | 92.4 | 2.5
2 | C[C@@H](O)[C@H]1C(=O)N2C(C(=O)OCc3ccc([N+](=O)[O-])cc3)=C(S[C@H]3C[C@@H](C(=O)N(C)C)N(C(=O)OCc4ccc([N+](=O)[O-])cc4)C3)[C@H](C)[C@H]12 [Compound of formula I in crystalline form] [(4R,5S,6S)-(p-nitrobenzyl) 3-[[(3S,5S)-1(-p-nitrobenzyloxycarbonyl)-5-(dimethylaminocarbonyl)-3-pyrrolidinyl]thio]-6-[(1R)-1-hydroxyethyl]-4-methyl-7-oxo-1-azabicyclo[3.2.0]hept-2-ene-2-carboxylate] | 99.1 | <0.3% | 99.4 | <0.3
